Patent US10624836B2, “Essential oil of achillea as anti-ageing agent” (L'OREAL, priority 2013, dated 2020)

What was measured:
[1] = tested on: primary normal human keratinocytes; assay: Collagen IV production by keratinocytes, in situ immunolabelling and image analysis; type: cell-based; conditions: TGF-β tested at 10 ng/ml; 72 hours at 37° C.; positive control
Method: The keratinocytes were seeded into and cultured in culture medium for 24 hours.
The culture medium (2.5 ml) was then replaced: • either with test medium containing TGF-β (Transforming Growth Factor β) at 10 ng/ml (positive control), • or with test medium containing the essential oil of Example 1 at 0.003% by volume, • or with the same culture medium (control).
The cells were then incubated for 72 hours at 37° C.
The culture medium was removed and the cells were rinsed, fixed and permeabilized. They were then labelled with an Anti-Collagen IV primary antibody sold by Abcam (reference: Ab6586) directed against the protein of interest (collagen IV). This antibody was visualized with an Alexa Fluor® 488 Goat Anti-Rabbit IgG (H+L) secondary antibody sold by Invitrogen (reference: A11008) coupled to a fluorochrome (GAR-Alexa 488). In parallel, the nuclei of the cells were stained with Hoechst 33258 (bisbenzimide).
The image acquisition was carried out with an INCellAnalyzer™1000 (GE Healthcare) high-resolution imaging system. For each well, 5 digitized images were acquired.
The labellings were quantified by measuring the fluorescence intensity of the proteins relative to the number of nuclei identified by the Hoechst product (integration of the digital data using the Developer Toolbox 1.5 software, GE Healthcare).

[2] = tested on: epidermis of a Realskin™ reconstructed skin; assay: Intra-tissue glutathione (GSH) level in reconstructed skin, LC/MS of GS-NEM; type: cell-based; conditions: lipoic acid 250 μmol·l^−1; 16 h at 37° C.; positive control
Method: For this, the GSH level was measured in the epidermis of a Realskin™ reconstructed skin which was: • nontreated (control), • treated with essential oil of Achillea at 0.01% by volume, or • treated with lipoic acid at 250 μmol·l^−1 (positive control).
The reconstructed tissue model kits are conditioned for transport on agar medium. Upon arrival, the tissues were reconditioned in a maintenance medium for a minimum of 16 h at 37° C. in a moisture-saturated atmosphere enriched with 5% CO2. The same medium was used for the incubations in the presence of the substrate.
The various solutions (2 ml) (of essential oil of Achillea at 0.01% by volume and of lipoic acid at […]) were deposited in the wells underneath the skins in order to diffuse through said skins more easily by capillary action. The tissues were then incubated in an incubator at 37° C. for 16 h.
The tissues were ground by means of a Potter grinder in […] of a solution of N-ethylmaleimide (NEM) at 2.5 mmol·l^−1 (excess of NEM). The Potter grinder was then washed with […] of ultrapure water, and 500 μl of 2% formic acid were added. The samples were then centrifuged for 15 minutes at 6000 rpm and at 4° C.
In order to assay the glutathione coupled to the NEM (GS-NEM), […] of the supernatant is diluted in 975 μl of 1% formic acid (1/40) in a 1 ml vial. […]

TGF-β
collagen IV production by the keratinocytes, relative to the control [1]: 594%

O=C(O)CCCC[C@@H]1CCSS1 (racemic) [lipoic acid]
increase in the GSH level relative to the nontreated tissues [2]: 52.0+/−12.7%
